# In article PMC4795541, “A Rapid and Quantitative Flow Cytometry Method for the Analysis of Membrane Disruptive Antimicrobial Activity” (PLoS ONE, 2016):
# Where two headings read alike, the source gives them in different places. Marks after values point to notes of the source that are not given here. Where no end group is shown, it is not given here.
# What was measured:
# [1] = tested on: S. aureus (MSSA) ATCC 29213; conditions: S. aureus (MSSA) ATCC 29213; 90 min incubation; average of 3 assays ± SD
# Excerpt: (§1) The bacterial strains; Fusobacterium nucleatum ATCC 25586, Streptococcus mutans Ingbritt, Staphylococcus aureus (MSSA) ATCC 29213; Staphylococcus aureus (MRSA) ATCC 43300; Enterococcus faecalis ATCC 29212; Enterobacter aerogenes ATCC 13048; Pseudomonas aeruginosa strain PAO1-LAC, ATCC 47085; Klebsiella pneumoniae ATCC 13883; Acinetobacter baumannii strain 2208, ATCC 19606; Escherichia coli ATCC 25922 lyophilised or glycerol stocks were obtained from the culture collection of the Oral Health Cooperative Research Centre, The Melbourne Dental School, University of Melbourne, Australia. These strains were selected for this study as they are widely used in antimicrobial studies and are considered to be important pathogens and major targets for antibiotic resistant studies. Bacteria were grown aerobically and maintained by passage at ambient temperature (E. coli, K. pneumoniae, A. baumannii and S. aureus strains) or at 37°C (P. aeruginosa, E. faecalis and E. aerogenes) on horse blood agar (10% v/v defibrinated horse blood, 4.4% w/v Oxoid Blood Agar Base No. 2). S. mutans and F. nucleatum were grown anaerobically (MK3 anaerobic workstation, Don Whitley Scientific Limited, England) and maintained by passage at 37°C on Todd Hewitt agar (3.6% w/v Oxoid Todd-Hewitt Broth, 1.5% w/v sucrose, 1.5% w/v BactoTM Agar, 0.8% w/v Oxoid Yeast Extract) or horse blood agar, respectively. For the antimicrobial peptide assays a 20 mL starter culture was produced by taking single colonies from blood or Todd Hewitt agar plates, respectively, to inoculate either: Luria Broth (LB; 1% w/v BactoTM Tryptone, 1% w/v NaCl, 0.5% w/v Oxoid Yeast Extract, pH 7.5, Thermo Scientific Pty, Ltd, Sydney, Australia) for bacteria; E. coli, K. pneumoniae, P. aeruginosa, A. baumannii, E. faecalis, E. aerogenes and S. aureus which were grown aerobically at 37°C, or Todd Hewitt broth (3.6% w/v Oxoid Todd-Hewitt Broth, 1.5% w/v sucrose, 0.8% w/v Oxoid Yeast 9 Extract) for S. mutans, or Brain Heart Infusion broth (BHI; 3.7% w/v Oxoid BHI, 0.05% w/v L-cysteine) for F. nucleatum which were both grown anaerobically at 37°C. After overnight incubation, 0.5–2.0 mL of the starter culture was used to inoculate the appropriate fresh broth (200 mL) and growth monitored at 650 nm using a spectrophotometer (model 275E; Perkin-Elmer, Sydney, Australia) with culture purity checked by microscopic examination and culture. Bacteria were harvested during late exponential growth phase and viability and bacteria/mL determined using a BacLight viability kit (Invitrogen, Sydney, Australia) and a Quanta SC-MPL flow cytometer (Beckman coulter Pty, Ltd, Sydney, Australia).
# (§2) Antibacterial assays were undertaken to determinate the minimum inhibitory concentration (MIC), minimum bactericidal concentration (MBC) and minimum membrane disruptive concentration (MDC) of each of the antimicrobial peptides (AMP) and AMP analogues (S1 Table). For each bacterim a stock solution (2.5 × 10^6 cells/mL) in the respective media was made and an aliquot incubated with AMPs within 15 minutes from viable cell count and stock preparation. All AMPs were dissolved in DMSO and a 500 μM stock solution prepared by adding the respective media and serial dilutions (250–0.244 μM) of the AMP in media (100 μL/well) made just prior addition of bacteria. […] One hundred microliter aliquots of the bacterial stock solution (2.5 × 10^5 cells/well) were added to the AMP serial dilutions and incubated at 37°C for 90 min. Assay preparation and incubations were conducted in aerobic or anaerobic conditions dependent on the bacteria. Bacteria were also incubated in the absence of AMP to serve as a growth control for the assay. After the 90 minute incubation period the antimicrobial activity (MIC, MBC and MDC) was determined as follows;
# (§3) For determination of MBC, the CLSI protocol was followed, with the modifications being that due to the rapid action of the AMPs the assay incubation time was shortened from 16–20 hours to 90 minutes.
# [2] = tested on: S. aureus (MRSA) ATCC 43300; conditions: S. aureus (MRSA) ATCC 43300; 90 min incubation; average of 3 assays ± SD
# Excerpt: as §1, §2, §3
# E. aerogenes ATCC 13048 [3] = conditions: E. aerogenes ATCC 13048; 90 min incubation; average of 3 assays ± SD
# Excerpt: as §1, §2, §3
# K. pneumoniae ATCC 13883 [4] = conditions: K. pneumoniae ATCC 13883; 90 min incubation; average of 3 assays ± SD
# Excerpt: as §1, §2, §3
# E. faecalis ATCC 29212 [5] = conditions: E. faecalis ATCC 29212; 90 min incubation; average of 3 assays ± SD
# Excerpt: as §1, §2, §3
# [6] = tested on: A. baumannii strain 2208, ATCC 19606; conditions: A. baumannii strain 2208, ATCC 19606; 90 min incubation; average of 3 assays ± SD
# Excerpt: as §1, §2, §3
# E. coli ATCC 25922 [7] = conditions: E. coli ATCC 25922; 90 min incubation; average of 3 assays ± SD
# Excerpt: as §1, §2, §3
# [8] = tested on: P. aeruginosa strain PAO1-LAC, ATCC 47085; conditions: P. aeruginosa PAO1-LAC, ATCC 47085; 90 min incubation; average of 3 assays ± SD
# Excerpt: as §1, §2, §3
# [9] = tested on: S. aureus (MSSA) ATCC 29213; conditions: S. aureus (MSSA) ATCC 29213; 90 min incubation; average of 3 assays ± SD; remark: listed apart in the source
# Excerpt: as §1, §2
# (§4) For MIC the CLSI broth microdilution assay was followed as we have previously described.
# [10] = tested on: S. aureus (MRSA) ATCC 43300; conditions: S. aureus (MRSA) ATCC 43300; 90 min incubation; average of 3 assays ± SD; remark: listed apart in the source
# Excerpt: as §1, §2, §4
# E. aerogenes ATCC 13048 [11] = conditions: E. aerogenes ATCC 13048; 90 min incubation; average of 3 assays ± SD; remark: listed apart in the source
# Excerpt: as §1, §2, §4
# K. pneumoniae ATCC 13883 [12] = conditions: K. pneumoniae ATCC 13883; 90 min incubation; average of 3 assays ± SD; remark: listed apart in the source
# Excerpt: as §1, §2, §4
# E. faecalis ATCC 29212 [13] = conditions: E. faecalis ATCC 29212; 90 min incubation; average of 3 assays ± SD; remark: listed apart in the source
# Excerpt: as §1, §2, §4
# [14] = tested on: A. baumannii strain 2208, ATCC 19606; conditions: A. baumannii strain 2208, ATCC 19606; 90 min incubation; average of 3 assays ± SD; remark: listed apart in the source
# Excerpt: as §1, §2, §4
# E. coli ATCC 25922 [15] = conditions: E. coli ATCC 25922; 90 min incubation; average of 3 assays ± SD; remark: listed apart in the source
# Excerpt: as §1, §2, §4
# [16] = tested on: P. aeruginosa strain PAO1-LAC, ATCC 47085; conditions: P. aeruginosa PAO1-LAC, ATCC 47085; 90 min incubation; average of 3 assays ± SD; remark: listed apart in the source
# Excerpt: as §1, §2, §4
# S. mutans Ingbritt [17] = tested on: S. mutans Ingbritt
# Excerpt: as §1, §2, §3
# F. nucleatum ATCC 25586 [18] = tested on: F. nucleatum ATCC 25586
# Excerpt: as §1, §2, §3
# S. mutans Ingbritt [19] = tested on: S. mutans Ingbritt; remark: listed apart in the source
# Excerpt: as §1, §2, §4
# F. nucleatum ATCC 25586 [20] = tested on: F. nucleatum ATCC 25586; remark: listed apart in the source
# Excerpt: as §1, §2, §4
# sheep red blood cells = experiment: Hemolysis assay; type: cell-based
# Method: Fresh sheep red blood cells in Alsever’s solution (RBCs, Equicell, Victoria, Australia) were diluted 1 in 20 in PBS (pH 7.4), pelleted by centrifugation, and washed three times in PBS (1000 g, 10 min). The RBCs were counted using a cell counter (Coulter Particle Counter Z series, Beckman Coulter) and diluted to a final concentration of 2 × 10^7 cells/mL. […] Following incubation, the RBCs were pelleted centrifuged (1000 g, 10 min) and the amount of haemoglobin in 100 μL aliquots determined by measuring the absorbance at 405 nm using a microplate reader (PerkinElmer 1420 Multilabel Counter VICTOR3). Positive and negative controls for hemolysis were taken as RBC lysed with 0.5% Triton X-100 (1:1 v/v) and RBC suspension in PBS, respectively. The percentage of hemolysis was calculated using the following formula: % Hemolysis = [(A405 test sample—A405 negative control) / (A405 positive control—A405 negative control)] × 100
# The percentage hemolysis was plotted against peptide concentration and linear regression analysis was used to determine the hemolytic concentration needed to lyse 50% (HC50) of RBCs.
# [21] = tested on: HEK-293 (ATCC CRL-1573) cells; experiment: Inhibition of cell proliferation assay (MTS); type: cell-based
# Method: After 28 h, 20 μL of 3-(4,5-dimethylthiazol-2-yl)-5-(3-carboxymethoxyphenyl)-2-(4-sulfophenyl)-2H-tetrazolium (MTS) solution (CellTiter 96 AQueous Non-Radioactive Cell Proliferation Assay kit, Promega) were added to each well and the plates were incubated for a further 1–2 h at 37°C, 5% CO2 incubator. Cell proliferation was determined by measuring absorbance at 490 nm using a microplate reader (PerkinElmer 1420 Multilabel Counter VICTOR3). Positive and negative controls for inhibition were taken as HEK-293 cells incubated with mytomycin C (5 μg/mL, Sigma Pty Ltd) and HEK-293 cells incubated in media alone, respectively. The percentage of inhibition was calculated using the following formula: % Inhibition = [(A490 test sample—A490 negative control) / (A490 positive control—A490 negative control)] × 100
# The percentage of inhibition was plotted against peptide concentration and linear regression analysis was used to determine the AMP concentration needed to inhibit 50% (IC50) of the HEK-293 cells.
compound,measurement,setting,value
GLLSVLGSVAKHVLPHVVPVIAEHL-NH2 [Caerin 1.1],MBC,[1],9.9 ± 2.3 µM
same,MBC,[2],13.9 ± 2.4 µM
same,MBC,E. aerogenes ATCC 13048 [3],51.1 ± 6.3 µM
same,MBC,K. pneumoniae ATCC 13883 [4],20.0 ± 7.1 µM
same,MBC,E. faecalis ATCC 29212 [5],17.5 ± 10.6 µM
same,MBC,[6],3.0 ± 1.0 µM
same,MBC,E. coli ATCC 25922 [7],15.6 ± 0.4 µM
same,MBC,[8],51.4 ± 27.1 µM
same,MIC,[9],5.5±0.2^e μM
same,MIC,[10],4.9±0.4^e μM
same,MIC,E. aerogenes ATCC 13048 [11],40.0 ± 8.2 µM
same,MIC,K. pneumoniae ATCC 13883 [12],14.6 ± 5.1 µM
same,MIC,E. faecalis ATCC 29212 [13],27.1 ± 15.0 µM
same,MIC,[14],3.1 ± 0.4 µM
same,MIC,E. coli ATCC 25922 [15],8.45±0.2^e μM
same,MIC,[16],39.3 ± 21.4 µM
CC[C@H](C)[C@H](NC(=O)CN)C(=O)NCC(=O)N[C@@H](C)C(=O)N[C@H](C(=O)N[C@@H](CC(C)C)C(=O)N[C@@H](CCCCN)C(=O)N[C@H](C(=O)N[C@@H](CC(C)C)C(=O)N[C@H](C(=O)N[C@H](C(=O)NCC(=O)N[C@@H](CC(C)C)C(=O)N1CCC[C@H]1C(=O)N[C@@H](C)C(=O)N[C@@H](CC(C)C)C(=O)N[C@H](C(=O)N[C@@H](CO)C(=O)N[C@@H](Cc1c[nH]c2ccccc12)C(=O)N[C@H](C(=O)N[C@@H](CCCCN)C(=O)N[C@@H](CCCNC(=N)N)C(=O)N[C@@H](CCCCN)C(=O)N[C@@H](CCCNC(=N)N)C(=O)N[C@@H](CCC(N)=O)C(=O)N[C@@H](CCC(N)=O)C(N)=O)[C@@H](C)CC)[C@@H](C)CC)[C@@H](C)O)[C@@H](C)O)C(C)C)C(C)C [Melittin],MBC,"S. mutans Ingbritt [17]; S. mutans Ingbritt, 90 min peptide/bacteria incubation, CFU on agar, ≥ 99.9% reduction, average of 3 assays ± SD",4.2 ± 2.4 µM
same,MBC,"F. nucleatum ATCC 25586 [18]; F. nucleatum ATCC 25586, 90 min peptide/bacteria incubation, CFU on agar, ≥ 99.9% reduction, average of 3 assays ± SD",3.8 ± 0.4 µM
same,MIC,"S. mutans Ingbritt [19]; S. mutans Ingbritt, 90 min peptide/bacteria incubation at 37°C, then growth at OD650, average of 3 assays ± SD",6.1 ± 0.9 µM
same,MIC,"F. nucleatum ATCC 25586 [20]; F. nucleatum ATCC 25586, 2.5 × 10^5 cells/well, 90 min peptide/bacteria incubation at 37°C, then growth at OD650, average of 3 assays ± SD",4.4 ± 0.3 µM
same,average MIC/MBC value,"F. nucleatum ATCC 25586 [20]; F. nucleatum, average of MIC and MBC",4.0 µM
GIGKFLHAAKKFAKAFVAEIMNS-NH2 [Ala-Magainin],MBC,S. mutans Ingbritt [17]; Ingbritt,3.4±0.5^c μM
same,MBC,F. nucleatum ATCC 25586 [18]; ATCC 25586,0.4±0.1^c μM
same,MIC,"S. mutans Ingbritt [19]; Ingbritt, 24 h",7.1±0.7^c μM
same,MIC,"F. nucleatum ATCC 25586 [20]; ATCC 25586, 24 h",0.6±0.1^c μM
same,Therapeutic Index (hemolysis),"sheep red blood cells; HC50/MDC50 (F. nucleatum), given as x : 1",24 : 1
same,Hemolysis (HC50),sheep red blood cells; pH 7.4,9.6 ± 0.9 µM
same,IC50,"[21]; HEK-293 cells 5×10^3, EMEM + 10% FBS, 28 h, MTS, A490, linear regression, maximum peptide concentration = 1000 µM",5.6 ± 1.4 µM
same,Therapeutic Index (proliferation),"[21]; IC50/MDC50 (F. nucleatum), given as x : 1",14.0 : 1
